These results are taken from US7723366B2 (Chugai Seiyaku Kabushiki Kaisha, priority 2001, dated 2010).

Data set [1] concerns muscle (M) isoform of CPT-I. To be noted: read-out: IC50 of malonyl-CoA inhibition of CPT-I; cited from earlier work.
Data set [2] concerns human breast cancer cells and xenografts. To be noted: cited from earlier work.
Data set [3] has as its target T1, malonyl-CoA decarboxylase prepared from rat heart (Rattus norvegicus, UniProt Q920F5).
T1 construct: from tissue; host or cells: rat heart
T1 sequence (Q920F5 39-492): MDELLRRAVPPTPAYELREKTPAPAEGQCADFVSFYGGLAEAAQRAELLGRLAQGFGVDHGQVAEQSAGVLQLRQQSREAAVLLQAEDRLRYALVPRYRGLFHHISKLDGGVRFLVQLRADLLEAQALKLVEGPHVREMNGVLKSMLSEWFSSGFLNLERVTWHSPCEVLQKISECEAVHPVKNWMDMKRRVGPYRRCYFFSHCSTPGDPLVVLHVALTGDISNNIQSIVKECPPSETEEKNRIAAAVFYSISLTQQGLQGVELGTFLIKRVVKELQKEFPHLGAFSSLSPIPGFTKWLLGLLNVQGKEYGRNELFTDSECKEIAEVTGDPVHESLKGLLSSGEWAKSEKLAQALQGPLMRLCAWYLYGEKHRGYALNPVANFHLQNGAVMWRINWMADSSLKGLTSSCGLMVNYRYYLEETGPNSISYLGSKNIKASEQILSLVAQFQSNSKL
Nature of the data set: In vitro MCD inhibitory assay (spectrophotometric, 96 well). The class given is biochemical. The note with it: read-out: IC50 of the MCD inhibitors. As to the method:
The following reagents are added into a 96 well titer plate: Tris-HCl buffer, 20 μL; DTE, 10 μL; I -malate, 20 μL; NAD, 10 μL; NADH, 25 μL; water, 80 μL; malic dehydrogenase, 5 μL. The contents are mixed and incubated for 2 min followed by the addition of 5 μL of citrate synthase. […] The content is incubated and absorbence at […] is measured.
Active compounds are characterized by the concentration of the compound that caused 50% inhibition of MCD activity (IC50).

Data set [4] relates to isolated working hearts from male Sprague-Dawley rats. Nature of the data set: Glucose oxidation and fatty acid oxidation measurement in the perfused rat heart. The note with it: compared with known metabolism modulators ranolazine or trimetazidine. As to the method:
Isolated working hearts from male Sprague-Dawley rats are subjected to a 60-minute aerobic perfusion period with a modified Krebs-Henseleit solution containing 5 mmol/L glucose; 100 μU/mL insulin; 3% BAS; and 1.2 mmol/L palmitate. Working hearts are used in these studies to approximate the metabolic demand of the heart seen in vivo. (Kantor et al., Circulation Research 86:580-588(2000)). The test compound is added 5 minutes into the perfusion period.
Glucose oxidation rates are determined by the quantitative collection of ^14CO2 produced by hearts perfused with buffer containing […]. Rates of fatty acid oxidation are determined by the quantitative collection of ^14CO2 produced by hearts perfused with buffer containing [^14C]palmitate (McNeill, J. H. in “Measurement of cardiovascular function”, chapter 2, CRC press, New York (1997)).
Active compounds are characterized by an increase in glucose oxidation as compared to control experiment (DMSO). The compounds that caused statistically significant increases in glucose oxidation are considered to be active. The preferred compounds cause statistically significant increases in glucose oxidation at 20 μM. Statistical significance was calculated using the Student's t test for paired or unpaired samples, as appropriate. The results with P<0.05 are considered to be statistically significant.

`CC(C)(COP(=O)(O)OP(=O)(O)OC[C@H]1O[C@@H](n2cnc3c(N)ncnc32)[C@H](O)[C@@H]1OP(=O)(O)O)[C@@H](O)C(=O)NCCC(=O)NCCSC(=O)CC(=O)O` [Malonyl-CoA]: in data set [1], the IC50 was 0.03 µM.

Consider `CCCCCCCCCCCCCCOc1ccc(C(=O)O)o1` [TOFA, 5-(tetradecyloxy)-2-furoic acid], for which, in data set [2] (breast carcinoma cells), the malonyl-CoA level is listed as 60 % of the control. In data set [2], the antitumor activity entry is on record as “does not show any antitumor activity”.

For `CCCCCCNc1ccc2nc(S)sc2c1` [Table 2; entry 1, 6-(hexylamino)-1,3-benzothiazole-2-thiol], the 50% inhibitory concentration (IC50) in data set [3] was 0.535 µM.

On to `Sc1nc2ccc(NCc3ccccc3)cc2s1` [Table 2; entry 3, 6-[(phenylmethyl)amino]-1,3-benzothiazole-2-thiol], for which, in data set [3], the half-inhibitory concentration (IC50) amounted to 2.62 µM.

As to `CCCCCCN(C(=O)Nc1cc(OC)cc(OC)c1)c1ccc2nc(S)sc2c1` [Table 3; entry 1, N′-[3,5-bis(methyloxy)phenyl]-N-hexyl-N-(2-mercapto-1,3-benzothiazol-6-yl)urea], in data set [3], the 50% inhibitory concentration (IC50) came to 0.065 µM. Also, the “effects in metabolism shift compared with ranolazine or trimetazidine” value in data set [4] is listed as “more profound effects in metabolism shift”.

On to `CCN(C(=O)Nc1ccccc1)c1ccc2nc(S)sc2c1` [Table 3; entry 5], for which, in data set [3], the 50% inhibitory concentration (IC50) came to 0.054 µM. Besides, the “effects in metabolism shift compared with ranolazine or trimetazidine” value in data set [4] is given as “more profound effects in metabolism shift”.

Consider `S=C(Nc1ccccc1)N(Cc1ccccc1)c1ccc2nc(S)sc2c1` [Table 3; entry 8], for which the IC50 in data set [3] turned out to be 0.24 µM.

Turning to `O=C(COc1ccccc1)N(Cc1ccccc1)c1ccc2nc(S)sc2c1` [Table 4; entry 1, N-(2-mercapto-1,3-benzothiazol-6-yl)-N-(phenylmethyl)-2-(phenyloxy)acetamide], in data set [3], the 50% inhibitory concentration (IC50) was determined as 1.02 µM.

With `CCCN(C(=O)N(CC(C)C)CC(C)C)c1ccc2nc(S)sc2c1` [Table 5; entry 5], in data set [3], the IC50 was 0.263 µM.

Turning to `O=S(=O)(c1ccc2sc(S)nc2c1)N1CCCCC1` [Table 7; entry 2], in data set [3], the IC50 came out at 0.466 µM.

As to `CCOC(=O)c1csc(S)n1` [Table 8; entry 1, Ethyl 2-Mercapto-1,3-thiazole-4-carboxylate], the melting point lay in the range of 120 to 121 °C.
